Experiment [1] deals with T1, PKMYT1 (protein kinase, membrane-associated tyrosine/threonine 1) (Homo sapiens, UniProt Q99640).
T1 construct: residues 75-362, N-terminal 6xHis, E. coli
T1 sequence (Q99640 75-362): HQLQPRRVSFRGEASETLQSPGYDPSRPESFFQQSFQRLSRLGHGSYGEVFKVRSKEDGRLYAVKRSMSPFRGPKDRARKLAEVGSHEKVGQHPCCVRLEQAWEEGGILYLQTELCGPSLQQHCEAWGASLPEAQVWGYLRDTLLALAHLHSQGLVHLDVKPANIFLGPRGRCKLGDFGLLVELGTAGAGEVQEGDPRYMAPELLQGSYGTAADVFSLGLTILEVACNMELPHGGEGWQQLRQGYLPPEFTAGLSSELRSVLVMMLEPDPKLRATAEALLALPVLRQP
The experiment can be described thus: MST; LC-MS/MS adduct mapping; CETSA; C301A mutant abolishes binding.

In another experiment the target is T2, TRIM25 (Homo sapiens, UniProt Q14258).
T2 construct: recombinant TRIM25 (Origene, TP303757)
The experiment can be described thus: MST. The format is binding.

The target of the next experiment is T3, PKMYT1 (Homo sapiens, UniProt Q99640).
T3 sequence (Q99640 1-499): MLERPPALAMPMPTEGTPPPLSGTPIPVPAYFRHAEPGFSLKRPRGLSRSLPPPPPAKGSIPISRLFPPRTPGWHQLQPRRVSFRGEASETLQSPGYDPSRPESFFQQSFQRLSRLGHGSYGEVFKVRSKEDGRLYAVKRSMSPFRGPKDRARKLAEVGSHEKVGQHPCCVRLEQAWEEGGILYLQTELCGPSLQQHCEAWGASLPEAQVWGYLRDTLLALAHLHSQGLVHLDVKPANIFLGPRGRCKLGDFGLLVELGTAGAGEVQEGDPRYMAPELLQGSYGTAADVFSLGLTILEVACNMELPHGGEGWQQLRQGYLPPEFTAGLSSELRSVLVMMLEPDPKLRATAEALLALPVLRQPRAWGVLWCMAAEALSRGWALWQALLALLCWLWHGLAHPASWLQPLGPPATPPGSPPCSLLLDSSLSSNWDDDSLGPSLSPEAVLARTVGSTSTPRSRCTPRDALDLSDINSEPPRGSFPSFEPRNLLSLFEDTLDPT
The experiment can be described thus: enzyme activity assay. Format: biochemical.

The target of experiment [2] is T4, TRIM25 protein (Origene, TP303757) (UniProt Q14258 1-630).
T4 construct: TRIM25, E3 ubiquitin ligase; also called recombinant TRIM25; E3 ligase TRIM25; source: bought: Origene (TP303757)
The experiment can be described thus: MST; PKMYT1 (75-362) protein labelled with RED-NHS 2nd Generation, 40 nM, assay buffer with 0.05% Tween-20; TRIM25 in 2-fold dilution series; Monolith NT.115; without Mei; n = 3. Particulars: both partners purified.

T2 sequence (Q14258 whole entry): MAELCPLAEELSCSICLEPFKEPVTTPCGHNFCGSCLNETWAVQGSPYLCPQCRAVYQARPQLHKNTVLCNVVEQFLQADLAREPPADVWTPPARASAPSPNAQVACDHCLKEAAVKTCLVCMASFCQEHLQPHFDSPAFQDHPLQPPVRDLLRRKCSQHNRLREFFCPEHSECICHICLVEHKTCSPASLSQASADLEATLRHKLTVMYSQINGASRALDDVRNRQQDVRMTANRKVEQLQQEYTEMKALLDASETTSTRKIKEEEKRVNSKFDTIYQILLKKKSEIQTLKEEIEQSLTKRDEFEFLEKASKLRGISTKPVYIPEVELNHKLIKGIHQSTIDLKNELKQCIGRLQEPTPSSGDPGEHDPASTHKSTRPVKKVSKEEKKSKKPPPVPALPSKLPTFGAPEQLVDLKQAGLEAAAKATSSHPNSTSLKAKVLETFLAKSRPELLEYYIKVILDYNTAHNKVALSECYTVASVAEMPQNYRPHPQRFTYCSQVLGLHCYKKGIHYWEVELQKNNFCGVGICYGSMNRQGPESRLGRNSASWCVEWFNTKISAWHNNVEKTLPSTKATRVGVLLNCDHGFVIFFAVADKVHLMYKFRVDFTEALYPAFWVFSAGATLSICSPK
T4 sequence (Q14258 whole entry): as above

For orientation: Kd means the free concentration of one partner at which half of the binding sites on the other are occupied at equilibrium, for simple one-to-one binding. Read a high Kd as a looser complex. In the case of `CN1C(=O)/C(=C2/C(=O)Nc3ccccc32)c2ccccc21` [Mei, Meisoindigo], the Kd was determined as 2.18 ± 0.96 µM in experiment [1] and 0.22 ± 0.1 µM on TRIM25. For orientation: IC50 means the midpoint of a concentration-inhibition curve. Read a low IC50 as greater potency in that assay. The molecule `CCN(CC)CCOc1ccc(Nc2ncc3cc(-c4c(Cl)cccc4Cl)c(=O)n(C)c3n2)cc1` [PD0166285] registered an IC50 against PKMYT1 of 0.0164 µM.

B1: recombinant PKMYT1 (75-362) (domain or fragment, human, UniProt Q99640 75-362, looked up)
chain: HQLQPRRVSFRGEASETLQSPGYDPSRPESFFQQSFQRLSRLGHGSYGEVFKVRSKEDGRLYAVKRSMSPFRGPKDRARKLAEVGSHEKVGQHPCCVRLEQAWEEGGILYLQTELCGPSLQQHCEAWGASLPEAQVWGYLRDTLLALAHLHSQGLVHLDVKPANIFLGPRGRCKLGDFGLLVELGTAGAGEVQEGDPRYMAPELLQGSYGTAADVFSLGLTILEVACNMELPHGGEGWQQLRQGYLPPEFTAGLSSELRSVLVMMLEPDPKLRATAEALLALPVLRQP
modifications: labelled with RED-NHS 2nd Generation dye for MST
notes: No cleavage of the His tag is described; also called protein kinase, membrane-associated tyrosine/threonine 1; source: E. coli BL21(DE3), purified (Ni-resin)
In experiment [2], B1 came in with a Kd of 2.94 µM.

(Values after publication PMC12140364, “Meisoindigo Acts as a Molecular Glue to Target PKMYT1 for Degradation in Chronic Myeloid Leukemia Therapy” (Advanced Science, 2025).)
